Structures are written as SMILES.

The text below walks through data of patent US20170065500A1, “Activation of Hydrogen Peroxide” (Revlon Consumer Products Corporation, priority 2015, published 2017).

Assay [1] deals with C. xerosis. Kind of assay: Bacterial colonies on agar petri dish treated with hydrogen peroxide alone and with UV light. The following applies: + 265 nm UV light, 15 minutes. It counts as cell-based. As to the method:
(§1) The bacterial (organism) was plated on a standard agar petri dish and allowed to grow. The colonies were treated with hydrogen peroxide alone and with UV light for 15 minutes. The light growth means light growth is visable but not as fully developed colonies. Heavy growth was fully developed colonies to numerous to count.

For assay [2], the system named is S. epidermidis. The description is as above. In kind it is cell-based. The following applies: + 265 nm UV light, 15 minutes. As to the method:
as §1

For the molecule `OO` [Hydrogen peroxide], the “bacterial growth after treatment” value in assay [1] is “No”; in assay [2], “Very”.
